Laboratory results: patent publication US4006231A, “N-aminosulfenylated derivatives of carbofuran” (priority 1974, dated 1977)
Converted amounts (≈) assume the structure as drawn.

Columns and labels:
milkweed bug [1] = test: Residual contact activity (7-day), milkweed bug; assay type: in vivo, Oncopeltus fascinatus; settings: Oncopeltus fasciatus, 48 h, surface aged seven days, read-out: % Kill, milkweed bug, Residual (7-day)
Description: (§1) Initial Contact Activity: One-half gram of test compound was dissolved in 40 ml of acetone and this solution was dispersed in 360 ml of water containing one drop of isooctylphenyl polyethoxyethanol. An aliquot of this solution was diluted with water to provide a solution containing 1250 ppm of active ingredient. […] At this time, the dead and living insects (or mites) were counted and the percent kill was calculated.
(§2) Residual Contact Activity: The residual contact activity of the compounds was determined on the same organisms using the technique described above, except that in each case the treated surface was allowed to dry and was exposed to normal light and air for seven days before introduction of the mites or insects. […]

pea aphid [2] = test: Initial contact activity, pea aphid; assay type: in vivo, Macrosiphum pisi; settings: Acyrthosiphon pisum, 48 hours exposure, read-out: % Kill, pea aphid, Initial
Description: as §1

two-spotted spider mite [3] = test: Initial contact activity, two-spotted spider mite; assay type: in vivo; settings: Tetranychus urticae, 48 hours exposure, read-out: % Kill, two-spotted spider mite, Initial
Description: as §1

granary weevil [4] = test: Residual contact activity (7-day), granary weevil; assay type: in vivo; settings: Sitophilus granarius, 48 h, surface aged seven days, read-out: % Kill, granary weevil, Residual (7-day)
Description: as §1, §2

granary weevil [5] = test: Initial contact activity, granary weevil; assay type: in vivo; settings: Sitophilus granarius, 48 hours exposure, read-out: % Kill, granary weevil, Initial
Description: as §1

Mexican bean beetle [6] = test: Residual contact activity (7-day), Mexican bean beetle; assay type: in vivo; settings: Epilachna varivestis, 48 h, surface aged seven days, read-out: % Kill, Mexican bean beetle, Residual (7-day)
Description: as §1, §2

southern army worm [7] = test: Initial contact activity, southern army worm; assay type: in vivo, Prodenia eridania; settings: 1250 ppm, 48 hours exposure
Description: as §1

southern army worm [8] = test: Residual contact activity (7-day), southern army worm; assay type: in vivo, Prodenia eridania; settings: 1250 ppm, surface aged seven days; 2880 min
Description: as §1, §2

Mexican bean beetle [9] = test: Initial contact activity, Mexican bean beetle; assay type: in vivo; settings: Epilachna varivestis, 48 hours exposure, read-out: % Kill, Mexican bean beetle, Initial
Description: as §1

adult female houseflies = test: whole plant or invertebrate; settings: Musca domestica, topical, 24 h, read-out: Houseflies LD50
Description: Toxicity of the compounds of the present invention to houseflies was tested using the technique described by March and Metcalf (Bull. Calif. State Dept. Agr. 38, No. 2, 93-101 [1949]): Solutions of test compounds in acetone were prepared at a range of concentrations. Adult female houseflies (Muscadomesticus) were treated with one drop of acetone solution, applied to the prothorax, using a syringe calibrated to deliver 1.00 ± 0.05 mm^3 drops. Twenty flies were treated at each dosage, each test compound was applied at 8 to 10 dosage levels. Each test was replicated three times. […] A one-inch square of cotton saturated with 40% sugar solution was provided for food in each carton. The cartons of flies were held in a constant temperature chamber at 60° F and 60% relative humidity for 24 hours before mortality counts were made. Flies totally unable to make crawling or walking movements were counted as dead. LD50 values were calculated in the conventional manner.

pea aphid [10] = test: Residual contact activity (7-day), pea aphid; assay type: in vivo, Macrosiphum pisi; settings: Acyrthosiphon pisum, 48 h, surface aged seven days, read-out: % Kill, pea aphid, Residual (7-day)
Description: as §1, §2

two-spotted spider mite [11] = test: Systemic insecticidal activity, soil-watering technique, two-spotted spider mite; assay type: in vivo; settings: Tetranychus urticae, 48 h, 25 ml to soil, infested after 3 days, counted 2 days later, read-out: % Kill, two-spotted spider mite, systemic
Mexican bean beetle [12] = test: Systemic insecticidal activity, soil-watering technique, Mexican bean beetle; assay type: in vivo; settings: Epilachna varivestis, 48 h, 25 ml to soil, infested after 3 days, counted 2 days later, read-out: % Kill, Mexican bean beetle, systemic
[13] = test system: larvae of Culex fatigans (mosquitoes); test: Toxicity to mosquitoes, fourth-instar larvae; settings: Culex quinquefasciatus, 24 h, read-out: Mosquitoes LC50
Description: Toxicity of the compounds of the present invention to mosquitoes was tested using the technique described by Mulla, Metcalf and Geib (Mosquito News 28, No. 2, 236 [ 1966]): A 1% (w/v) stock solution was prepared by dissolving the test compound in acetone. The appropriate amount of stock solution was added with stirring to 100 ml of tap water and 20-25 fourth-instar larvae of Culex fatigans were placed in the solution. After 24 hours, the counts were taken. Larvae not able to rise to the surface on touch were counted as dead. Each concentration was run in duplicate and each material was run on two or three different days. The average percent mortality was plotted against the logarithm of the concentration (in ppm) and the LC50 value determined by inspection.

southern army worm [14] = test: Systemic insecticidal activity, soil-watering technique, southern army worm; assay type: in vivo, Prodenia eridania; settings: 156 ppm, 25 ml to soil, infested after 3 days, counted 2 days later
[15] = Acute oral toxicity to mice; settings: mouse, in vivo
Description: Acute oral toxicity of the compounds of the present invention to mice was determined after the manner of Hollingworth, Fukuto and Metcalf (J. Agr. Food Chem. 15, 235 [ 1967]): Solutions of the compounds at each of a series of concentrations were prepared in olive oil or propylene glycol as solubility required. A dose of 0.25 ml of each solution was administered to each of four female white Swiss mice using the "bolus"-tipped syringe. […] Final mortality determinations were made 48 hours after treatment.

confused flour beetle [16] = test: Initial contact activity, confused flour beetle; assay type: in vivo; settings: Tribolium confusum, 48 hours exposure, read-out: % Kill, confused flour beetle, Initial
Description: as §1

confused flour beetle [17] = test: Residual contact activity (7-day), confused flour beetle; assay type: in vivo; settings: Tribolium confusum, 48 h, surface aged seven days, read-out: % Kill, confused flour beetle, Residual (7-day)
Description: as §1, §2

two-spotted spider mite [18] = test: Residual contact activity (7-day), two-spotted spider mite; assay type: in vivo; settings: Tetranychus urticae, 48 h, surface aged seven days, read-out: % Kill, two-spotted spider mite, Residual (7-day)
Description: as §1, §2

milkweed bug [19] = test: Initial contact activity, milkweed bug; assay type: in vivo, Oncopeltus fascinatus; settings: Oncopeltus fasciatus, 48 hours exposure, read-out: % Kill, milkweed bug, Initial
Description: as §1

plum curculio [20] = test: Initial contact activity, plum curculio; assay type: in vivo; settings: Conotrachelus nenuphar, 48 hours exposure, read-out: % Kill, plum curculio, Initial
Description: as §1

plum curculio [21] = test: Residual contact activity (7-day), plum curculio; assay type: in vivo; settings: Conotrachelus nenuphar, 48 h, surface aged seven days, read-out: % Kill, plum curculio, Residual (7-day)
Description: as §1, §2

pea aphid [22] = test: Systemic insecticidal activity, soil-watering technique, pea aphid; assay type: in vivo, Macrosiphum pisi; settings: Acyrthosiphon pisum, 48 h, 25 ml to soil, infested after 3 days, counted 2 days later, read-out: % Kill, pea aphid, systemic

Compound | mortality at 1250 ppm (milkweed bug [1]) [%] | mortality at 1250 ppm (pea aphid [2]) [%] | mortality at 1250 ppm (two-spotted spider mite [3]) [%] | mortality at 1250 ppm (granary weevil [4]) [%] | mortality at 1250 ppm (granary weevil [5]) [%] | mortality at 1250 ppm (Mexican bean beetle [6]) [%] | % Kill, southern army worm, Initial (southern army worm [7]) [%] | % Kill, southern army worm, Residual (7-day) (southern army worm [8]) [%] | mortality at 1250 ppm (Mexican bean beetle [9]) [%] | LD50 (adult female houseflies) [mg/kg] | mortality at 1250 ppm (pea aphid [10]) [%] | mortality at 156 ppm (two-spotted spider mite [11]) [%] | mortality at 156 ppm (Mexican bean beetle [12]) [%] | LC50 [13] [µg/mL] | % Kill, southern army worm, systemic (southern army worm [14]) [%] | LD50 at 48 h [15] [mg/kg] | mortality at 1250 ppm (confused flour beetle [16]) [%] | mortality at 1250 ppm (confused flour beetle [17]) [%] | mortality at 1250 ppm (two-spotted spider mite [18]) [%] | mortality at 1250 ppm (milkweed bug [19]) [%] | also measured
CN(SN1CCOCC1)C(=O)Oc1cccc2c1OC(C)(C)C2 [II, 2,3-Dihydro-2,2-dimethyl-7-benzofuranyl (Methyl)(morpholinosulfenyl)carbamate] | 100 | 100 | 97 | 100 | 100 | 100 | 100 | 83 | 100 | ~10.5 | 100 | 76 | 100 | 0.048 (≈ 0.142 µM) | 100 | 10 to 20 | 100 | 0 | 4 | 100 | mortality at 1250 ppm (plum curculio [20]): 100%; mortality at 1250 ppm (plum curculio [21]): 100%; mortality at 156 ppm (pea aphid [22]): 100%
CNC(=O)Oc1cccc2c1OC(C)(C)C2 [Carbofuran, 2,3-dihydro-2,2-dimethyl-7-benzofuranyl methylcarbamate] | – | – | – | – | – | – | – | – | – | ~6.7 | – | – | – | 0.052 (≈ 0.235 µM) | – | ~2 | – | – | – | – | –
CN(C)SN(C)C(=O)Oc1cccc2c1OC(C)(C)C2 [I, 2,3-Dihydro-2,2-dimethyl-7-benzofuranyl (Dimethylaminosulfenyl) (methyl)carbamate] | 100 | 100 | 100 | 63 | 100 | 95 | 100 | 80 | 100 | ~15 | 95 | 73 | 100 | 0.027 (≈ 0.0911 µM) | 100 | 10 to 20 | 100 | 0 | 3 | 100 | mortality at 1250 ppm (plum curculio [20]): 100%; mortality at 1250 ppm (plum curculio [21]): 5%; mortality at 156 ppm (pea aphid [22]): 100%
